# Experimental data: patent US10017767B2, “Targets in multiple myeloma and other disorders” (FONDAZIONE CENTRO SAN RAFFAELE, priority 2012, dated 2018)
# How the values were obtained:
# [1] = MTT viability assay, U266; assay type: cell-based; conditions: human, U266 multiple myeloma cells
# Protocol: (§1) Viability of MM cells was evaluated by 3-[4,5-dimethylthiazol-2-yl]-2,5-diphenyltetrazolium bromide (MTT) colorimetric survival assay. MM cells (20,000-50,000) were plated in 100 μL medium. At the various time points (24-96 hours), 10 μL 5 mg/mL MTT were added to plated cells. After 4 hour incubation at 37° C., medium was discarded and 100 μL MTT stop solution (Isopropanonol with […] Hcl) used to dissolve MTT metabolic products. Absorbance was read at 570 nm and background was subtracted at 630 nm, using spectrophotometer SPECTRAMAX M2 machine and Softmax Pro v5 software. Cellular growth was estimated by cell counting in triplicates, excluding dead cells stained by trypan blue.
# MM.1S cells [2] = assay: Apoptosis by Annexin V-FITC/PI staining, MM.1S; assay type: cell-based, human
# Protocol: (§2) In particular, cells were washed twice with room-temperature PBS, resuspended in 100 μL of Annexin binding buffer, and stained with specific antibodies for 20 minutes.
# U266 MM cell line [3] = assay: Apoptosis by Annexin V-FITC/PI staining, U266; assay type: cell-based
# Protocol: as §2
# ABL1 = ABL1 cytoplasmic/nuclear localization by subcellular fractionation and Western blot in MM cell lines; assay type: cell-based; conditions: 2-10 μM; 1, 2, 6 and 24 hs; MM.1S, H929, UTMC-2, JJN-3, KMS-20
# Protocol: (§3) MM cells were harvested and lysed using lysis buffer: 50 mMTris-HCl (pH 7.4), 150 mM NaCl, 1% NP-40, 5 mM EDTA, 5 mM NaF, 2 mM Na3VO4, 1 mM PMSF, 5 μg/mL leupeptine, and 5 μg/mL aprotinin. Nuclear extracts were prepared using Nuclear Extraction Kit (Panomics). Cell lysates were subjected to sodium dodecyl sulfate-polyacrylamide gel electrophoresis SDS-PAGE, transferred to nitrocellulose membranes, and immunoblotted with different antibodies: ATM, phospho-ATM (Ser1981), ATR, phospho-ATR (Ser428), CHK2, phospho-CHK2 (Thr68), CHK1, phospho-CHK1 (Ser296), p21, p53, phospho-p53 (ser127), STK4, LATS1, phospho-LATS1 (Ser909), phospho-ABL1 (Thr735), cleaved caspase 3, cleaved PARP, histone H3, SAPK/JNK, phospho-SAPK/JNK (Thr183/Tyr185), GM130, GAPDH, and α-tubulin (Cell Signaling); STK4, Nuclear Matrix Protein p84 (Abeam), p73 (BD), phospho-H2A.X (Ser139) (Millipore); as well as ABL1, BAX, Puma, Noxa, actin and nucleolin (Santa Cruz Biotechnology).
# ATM = assay: CHK2 (Thr68) phosphorylation immunoblot in MM cells; assay type: cell-based
# UTMC-2 cells [4] = conditions: doxorubicin 40 nM, 48 h, before treatment 19.1%
# U266 cell line = assay: MTT viability assay, U266; assay type: cell-based; conditions: 48 h
# Protocol: as §1
# MTT assay, UTMC-2 = assay type: cell-based, human; conditions: human, UTMC-2 multiple myeloma cells; UTMC-2; doxorubicin 40 nM, 48 h; read-out: cell viability by MTT assay
# Protocol: as §1
# UTMC-2 cells [5] = assay: MTT assay, UTMC-2; assay type: cell-based, human; conditions: doxorubicin 40 nM, 48 hours
# Protocol: as §1
# U266 MM cell line [6] = assay: DNA damage markers and ABL1 localization in U266; assay type: cell-based; conditions: doxorubicin 40 nM
# Protocol: MM cells were harvested and lysed using lysis buffer: 50 mMTris-HCl (pH 7.4), 150 mM NaCl, 1% NP-40, 5 mM EDTA, 5 mM NaF, 2 mM Na3VO4, 1 mM PMSF, 5 μg/mL leupeptine, and 5 μg/mL aprotinin. Nuclear extracts were prepared using Nuclear Extraction Kit (Panomics). […]
# 15,000 cells from MM cell lines, PBMCs or MM patient samples were cytospun for 5 minutes at 350-500 rpm, fixed in 4% paraformaldehyde (PFA) for 15 minutes, washed three times with PBS, and incubated with 0.1M glycin for 10 minutes to quench PFA autofluorescence. […] The slides were then mounted with ProLong Gold Antifade Reagent (Invitrogen), and images were taken using a Zeiss microscope (Carl Zeiss) equipped with Hamamatsu ORCA-ER camera (Hamamatsu Photonics) and analyzed with ImageJ software. […]
# [7] = MTT viability assay, MM.1S; assay type: cell-based, human; conditions: human, MM.1S multiple myeloma cells; MM.1S; doxorubicin 40 nM, 48 h; read-out: cell viability by MTT assay
# Protocol: as §1
# YAP1, p73 = assay: Western blot of YAP1, p73 and p73 targets in MM.1S and U266; assay type: cell-based
# Protocol: as §3
# MM.1S and UTMC-2 = assay: DNA damage markers and nuclear ABL1 in MM.1S and UTMC-2; assay type: cell-based, human; conditions: doxorubicin 40 nM
# Protocol: as §3
# [8] = MTT viability assay, KMS-20; assay type: cell-based; conditions: human, KMS-20 multiple myeloma cells, LACZ-transfected; read-out: 48 hour viability (MTT, normalized to LACZ+DMSO)
# Protocol: as §1
# KMS-20 cells = assay: MTT viability assay, KMS-20; assay type: cell-based; conditions: KMS-20 YAP1-transfected; imatinib 10 μM from day 0
# Protocol: as §1
# MM.1S cells [9] = assay: MTT viability assay, MM.1S; assay type: cell-based, human; conditions: MM.1S YAP1-transfected; imatinib 10 μM from day 0
# Protocol: as §1
# [10] = system: KMS-20 cells transfected with pLENTI4-YAP1-EGFP; assay: Apoptosis by Annexin V-PE/7AAD on GFP-positive YAP1-transfected cells; assay type: cell-based; conditions: YAP1 reintroduced; with imatinib 10 μM
# Protocol: Cellular counting was performed in triplicate for each condition, with trypan blue exclusion. Right panel: Apoptosis by Annexin V-PE/7AAD, gating on GFP-positive cells. The percentage of viable cells (Annexin V-PE-/7AAD-cells) is shown at 48 hours.
# p-ENTR-YAP1-EGFP plasmid was kindly provided by Dr. Marius Sudol and subcloned into pLENTI4-V5DEST vector using GATEWAY strategy. p-LENTI4-LACZ vector was used as control. KMS-18, KMS-20, MM.1S, RPMI-8226 and UTMC-2 cells (5,000,000) cells were transiently transfected with p-LENTI4 YAP1, using ‘Cell Line Nucleofector Kit V (Amaxa Biosystems, Köln, Germany), according to the manufacturer's instructions. AMAXA program: MM.1S→T-030; RPMI-8226→C-015; KMS-18, KMS-20 and UTMC-2→X-001. Specifically, 5×10^6 cells were resuspended in 100 μL V solution and 2500 ng of plasmid. Following transfection, MM cells were subjected to mRNA analysis, Western blotting, as well as apoptosis, cell counting, and MTT assays.
# In particular, cells were washed twice with room-temperature PBS, resuspended in 100 μL of Annexin binding buffer, and stained with specific antibodies for 20 minutes. After adding other […] of Annexin binding buffer, samples were acquired using FACS Canto II machine from Becton Dickinson, BD, and analyzed with FCS EXPRESS 4 Flow Research Edition software.
# MM.1S MM cells = assay: MM.1S xenograft mouse model with inducible STK4 knockdown; assay type: in vivo, Fox Chase SCID mice; conditions: subcutaneous, 6 weeks; scrambled shRNA tumors 1965 mm^3
# Protocol: A genetic approach conditionally knocking down STK4 in MM.1S cells was performed. In this study, MM.1S MM cells were infected with either inducible scrambled shRNAs, or inducible pLKO.1-TET shRNA #4 and pTRIPZ 63 directed against STK4 and then injected subcutaneously into three sites (left and right flank and interscapular region) in a group of 12 Fox Chase SCID mice.
# YAP1 = YAP1 knockdown by lentiviral shRNA; assay type: cell-based
# Protocol: Lentiviral short hairpin RNAs (shRNA) were used to knockdown YAP1 and STK4 expression in MM cells. Scrambled control pLKO.1 shRNA vectors and specific YAP1 and STK4 shRNA constructs were kindly provided by Dr. William Hahn (Dana-Farber Cancer Institute).
# The efficacy of each shRNA in silencing gene expression was tested in HCT-116 and HeLa cell lines using Mirus Bio Trans-IT LT1 transfection reagent. To obtain stable silenced clones with YAP1/STK4 shRNA or pLKO.1 control plasmid, the following protocol was used. 293T cells were plated (300,000 cells on 6-cm plates) in DMEM/10% FBS/0.1% P/S. After 24 hours when cells were 60-70% confluent, 1000 ng of vector of interest together with 100 ng p-VSV-G and 900 ng delta 8.94 (both packaging vectors purchased from Addgene) were co-transfected with MIRUS BIO TransIT-LT1 diluted in OPTI-MEM (GIBCO). After 12 hours, 293T media was changed with DMEM/[…] to promote viral production. 24 and 48 hours post transfection, supernatant containing lentiviral particles was harvested, filtered with 0.45 μM diameter filter, and used to infect 2.5×10^6 MM cells. […] After the second cycle of infection, cells were put under selection with a suitable concentration of puromycin. mRNA and protein expression were evaluated 48 and 72 hrs after selection. […]
molecule,measurement,setting,value
CCOc1cc2ncc(C#N)c(Nc3ccc(OCc4ccccn4)c(Cl)c3)c2cc1NC(=O)/C=C/CN(C)C [HKI-272],"viability at 24 h, 10 µM","[1]; 10 μM, 24 h, read-out: 24 hour viability (MTT, normalized to DMSO)",98.2%
same,"viability at 48 h, 10 µM","[1]; 10 μM, 48 h, read-out: 48 hour viability (MTT, normalized to DMSO)",87.8%
same,"viability at 72 h, 10 µM","[1]; 10 μM, 72 h, read-out: 72 hour viability (MTT, normalized to DMSO)",56.9%
same,"viability at 96 h, 10 µM","[1]; 10 μM, 96 h, read-out: 96 hour viability (MTT, normalized to DMSO)",17.9%
same,apoptosis (Annexin V-FITC/PI),"MM.1S cells [2]; 10 μM, untreated 11%",67%
same,apoptosis (Annexin V-PI),"U266 MM cell line [3]; 10 μM, untreated 10%",43%
O=c1cc(-c2cccc3c2Sc2ccccc2S3)oc(N2CCOCC2)c1 [Ku55933],cytoplasmic and nuclear ABL1 levels,ABL1,"increase in the levels of cytoplasmic ABL1, and a concomitant strong reduction of nuclear ABL1"
same,CHK2 phosphorylation at Thr68,ATM,reduction in CHK2 phosphorylation at Thr68
COc1cccc2c1C(=O)c1c(O)c3c(c(O)c1C2=O)C[C@@](O)(C(=O)CO)C[C@@H]3O[C@H]1C[C@H](N)[C@H](O)[C@H](C)O1 [doxorubicin],apoptosis (Annexin V-FITC/PI),UTMC-2 cells [4],57.8%
same,viable cells (MTT assay),U266 cell line; doxorubicin 40 nM,52.8%
same,"viability at 48 h, 40 nM","[1]; doxorubicin 40 nM, 48 h, read-out: viable cells (MTT assay)",50%
same,"viability at 48 h, 40 nM","MTT assay, UTMC-2",66.5%
same,percentage of apoptotic cells by MTT assay,UTMC-2 cells [5]; UTMC-2 control cells,37.4%
same,percentage of apoptotic cells by MTT assay,UTMC-2 cells [5]; UTMC-2 stably YAP1-silenced,15.8%
same,ABL1 localization,U266 MM cell line [6],ABL1 moved to the nuclear compartment
same,"γ-H2A.X foci, pATM and pJNK phosphorylation",U266 MM cell line [6],induced multiple γ-H2A.X foci and strong pATM and pJNK phosphorylation
same,"viability at 48 h, 40 nM",[7],33.3%
same,YAP1 and p73 protein levels,"YAP1, p73; doxorubicin 40 nM","induced YAP1, as well as p73"
same,"γ-H2AX, pATM, pJNK and nuclear ABL1",MM.1S and UTMC-2,"increase in γ-H2AX, pATM, and pJNK was evident, along with a major increase in nuclear ABL1"
same,apoptosis (Annexin V-FITC/PI),"MM.1S cells [2]; doxorubicin 40 nM, 48 h, before treatment 12.4%",55.3%
same,apoptotic cells (Annexin V and PI staining),"U266 MM cell line [3]; doxorubicin 40 nM, 48 h, before treatment 13.1%",40.1%
Cc1ccc(NC(=O)c2ccc(CN3CCN(C)CC3)cc2)cc1Nc1nccc(-c2cccnc2)n1 [imatinib],viability at 10 µM,"U266 cell line; Homo sapiens, U-266, 48 h, doxorubicin 40 nM with imatinib 10 μM, doxorubicin alone 52.8%",78.5%
same,"viability at 48 h, 10 µM",[8],103%
same,"48 hour viability (MTT, normalized to LACZ+DMSO)",KMS-20 cells,96.7%+8.9
same,"48 hour viability (MTT, normalized to LACZ+DMSO)",MM.1S cells [9],86.1%±20.6
same,apoptotic cells after reintroduction of YAP1,[10],9.1%
same,"YAP1, p73 and p73-target expression triggered by DNA-damaging agents","YAP1, p73; doxorubicin 40 nM with imatinib 10 μM","stifled the increase in YAP1, p73 and p73-target expression"
pLKO.1-TET shRNA #4: inducible shRNA directed against STK4; clone #4 target sequence GCCAAGCGGAATACAGTGATA (the letters are possibly those of the target site),xenograft tumor growth,MM.1S MM cells,no growth was evident
"shRNA #1: lentiviral shRNA targeting YAP1, CCCAGTTAAATGTTCACCAAT",knockdown of YAP1,YAP1,robust knockdown of YAP1
"shRNA #3: lentiviral shRNA targeting YAP1, CAGGTGATACTATCAACCAAA (the letters are possibly those of the target site)",knockdown of YAP1,YAP1,robust knockdown of YAP1
